Results taken from patent US20030186423A1, “Amidase from variovorax” (Degussa AG, priority 2001, published 2003).

Key:
Assay type in all cases: biochemical, Variovorax paradoxus
D-amidase [1] = test: Kinetic cleavage of racemic amino acid amides: enantioselectivity as a function of the conversion
Protocol: To evaluate the suitability for kinetic cleavage of racemic DL-Tle-NH2, the enantioselectivity was determined as a function of the conversion.
DL-Valin-, DL-leucin- and DL-phenylalaninamide were alos tested in this respect. For this, the enantioselectivity was determined as function of the conversion with partly purified enzyme from Variovorax paradoxus 19-3 after the 1st chromatography step.
(§1) The separation and quantitative determination of the enantiomers D- and L-tert-leucine were carried out by a “chiral derivatization” on the basis of o-phthaldialdehyde (OPA)/N-isobutyryl-L-cysteine or N-isobutyryl-D-cysteine (Brückner, H.; Wittner R. and Godel H. (1991), Fully automated high-performance liquid chromatographic separation of DL-amino acids derivatized with o-Phthaldialdehyde together with N-isopropyl-cysteine. Application to food samples. Anal. Biochem. 144, 204-206). The diastereomeric isoindole derivatives formed were separated on an RP-18 (reversed phase) column and detected by fluorescence. A two-buffer system of aqueous acetate buffer and an acetonitrile/water mixture was used as the mobile phase.

D-amidase [2] = test: Enzyme test for amino acid amides and α-hydroxycarboxylic acid amides (HPLC or NH4+ determination); conditions: for Activity with respect to Tle-NH2 / Specific activity: substrate 40 mM; for Activity with respect to Tle-NH2: DL-Tle-NH2 = 1; for Specific activity: partly purified D-amidase after the 2nd chromatography step (0.56 U/mg), Pro-, Lac-, MHA-NH2 by NH4+ determination; for Rel. activity with respect to D and L: activity for the lower enantiomer set at 1
Protocol: For prolinamide, and the α-hydroxycarboxylic acid amides lactic acid amide (Lac-NH2) and 2-hydroxy-4-methylmercaptobutyric acid amid (MHA-NH2), the methionine-analogous α-hydroxycarboxylic acid amide, determination of the product with the previous HPLC analysis is not possible. For these substrates, the activity was determined with the aid of NH4^+ determination. […] All the substrates were employed in the enzyme test at 40 mM. In the 4th column, for further comparison the activity for the lower enantiomer has been set at 1 and a relative activity for the preferred enantiomer has been calculated therefrom.
(§2) In the conversion of tert-leucinamide (gen. acid amides) by the D-amidase, the formation of ammonia or ammonium ions and tert-leucine (gen. acid) in equimolar amounts occurs. […] The change in concentration of the components participating can be measured in an enzyme test, which comprises incubation of the following test batch for 10-60 minutes at 30° C.
(§3) The enzyme test was started by addition of the substrate and the reaction was stopped by heating at 95° C. for three minutes. The analysis of the reaction products was carried out for ammonium ions by enzymatic determination of ammonium by glutamate dehydrogenase (Bergmeyer, H.,U., and Beutler, H.-O. (1985) Ammonia. In: Methods of Enzymatic Analysis. VCH-Verlag, 3rd edition, vol. 8: 454-461, Weinheim) and for D- and L-tert-leucine by means of HPLC (Bruckner, H., Wittner R., and Godel H., (1991) Fully automated high-performance liquid chromatographic separation of DL-amino acids derivatized with o-phthaldialdehyde together with N-isopropyl-cysteine. Application to food samples. Anal. Biochem. 144(1): 204-206). Batches to which no substrate were added served as controls.
as §1

D-amidase [3] = test: Enzyme test for acid amides, activity by determination of ammonium ions with glutamate dehydrogenase; conditions: for Activity with respect to Tle-NH2: DL-Tle-NH2 = 1; for Relative act.: partly purified D-amidase after the 2nd chromatography step (0.51 U/mg)
Protocol: The activity was measured by determination of the ammonium ions with glutamate dehydrogenase (Bergmeyer, H. U., and Beutler, H.-O. (1985), Ammonia. In: Methods of Enzymatic Analysis. VCH-Verlag, 3rd edition, vol. 8: 454-461, Weinheim). […] The substrates were employed in the enzyme test at 40 mM, except for succinic acid diamide and adipic acid diamide, each at 10 mM, and benzylamide at 20 mM. Since the activities were determined only at in each case one substrate concentration, relative activities are stated.
as §2, §3
The enzyme glutamate dehydrogenase (GluDH; E.C.1.4.1.3) converts 2-oxoglutarate into L-glutamate, ammonium ions being consumed and NADH being oxidized to NAD+(Bergmeyer, H.,U. and Beutler, H.-O. (1985), Ammonia. In: Methods of Enzymatic Analysis. VCH-Verlag, 3rd edition, vol. 8: 454-461, Weinheim). The amount of NADH consumed during the reaction is equivalent to the amount of ammonium ions. The change in the concentration of NADH is the measurement parameter and can be determined spectrophotometrically at a wavelength of 340 nm.
The test components were pipetted into cells of plastic (1.5 ml semimicro disposable cells, Brand) and mixed and the extinction at 340 nm was determined after 5 min. 10 μl GluDH were then added, and after the reaction had gone to completion, as a rule after 30 min, the extinction was measured again.

[4] = conversion 4%, partly purified enzyme after the 1st chromatography step
[5] = conversion 51%, partly purified enzyme after the 1st chromatography step

Compound	Activity with respect to Tle-NH2 (D-amidase [2])	Specific activity (D-amidase [2])	Rel. activity with respect to D and L (D-amidase [2])	other results
CC(C)C[C@H](N)C(N)=O (racemic) [DL-Leu-NH2]	–	–	–	E value (D-amidase [1]; conversion 4%): 470; ee D-Val (D-amidase [1]; [4]): 99.6%; E value (D-amidase [1]; conversion 18%): 130; ee D-Val (D-amidase [1]; conversion 18%, partly purified enzyme after the 1st chromatography step): 98.1%; E value (D-amidase [1]; conversion 33%): 120; ee D-Val (D-amidase [1]; conversion 33%, partly purified enzyme after the 1st chromatography step): 97.3%; E value (D-amidase [1]; conversion 40%): 114; ee D-Val (D-amidase [1]; conversion 40%, partly purified enzyme after the 1st chromatography step): 96.7%; E value (D-amidase [1]; conversion 48%): 53; ee D-Val (D-amidase [1]; conversion 48%, partly purified enzyme after the 1st chromatography step): 90.8%; E value (D-amidase [1]; conversion 51%): 41; ee D-Val (D-amidase [1]; [5]): 86.7%
CSCCC(O)C(N)=O (racemic) [DL-MHA-NH2, 2-hydroxy-4-methylmercaptobutyric acid amid]	150	82 U/mg	–	–
CSCCC(N)C(N)=O (racemic) [DL-Met-NH2]	230	130 U/mg	2.7	–
NC(=O)C(N)Cc1ccccc1 (racemic) [DL-Phe-NH2, DL-phenylalaninamide]	–	–	–	E value (D-amidase [1]; conversion 4%): 5.6; ee D-Val (D-amidase [1]; [4]): 68.8%; E value (D-amidase [1]; conversion 14%): 5.2; ee D-Val (D-amidase [1]; conversion 14%, partly purified enzyme after the 1st chromatography step): 65.1%; E value (D-amidase [1]; conversion 26%): 5.1; ee D-Val (D-amidase [1]; conversion 26%, partly purified enzyme after the 1st chromatography step): 61.5%; E value (D-amidase [1]; conversion 36%): 5.2; ee D-Val (D-amidase [1]; conversion 36%, partly purified enzyme after the 1st chromatography step): 58.3%; E value (D-amidase [1]; conversion 51%): 5.1; ee D-Val (D-amidase [1]; [5]): 50.9%; E value (average) (D-amidase [1]; racemic amide, calculated from Table 3): 5
NC(=O)C(N)Cc1c[nH]c2ccccc12 (racemic) [DL-Trp-NH2]	160	86 U/mg	2.5	–
CC(N)=O [Acetamide]	–	–	–	Activity with respect to Tle-NH2 (D-amidase [3]; substrate 40 mM): 4.0; Relative act. (D-amidase [3]; substrate 40 mM): 2.1 U/mg
CC(=O)CC(N)=O [Acetoacetamide]	–	–	–	Activity with respect to Tle-NH2 (D-amidase [3]; substrate 40 mM): 130; Relative act. (D-amidase [3]; substrate 40 mM): 58 U/mg
NC(=O)CCCCC(N)=O [Adipic acid diamide]	–	–	–	Activity with respect to Tle-NH2 (D-amidase [3]; substrate 10 mM): 14; Relative act. (D-amidase [3]; substrate 10 mM): 7.0 U/mg
CCCC(N)=O [Butyramide]	–	–	–	Activity with respect to Tle-NH2 (D-amidase [3]; substrate 40 mM): 37; Relative act. (D-amidase [3]; substrate 40 mM): 17 U/mg
C[C@@H](N)C(N)=O [D-Ala-NH2]	44	23 U/mg	3.0	–
CC(O)C(N)=O [D-Lac-NH2, lactic acid amide]	59	29 U/mg	1	–
CC(C)C[C@@H](N)C(N)=O [D-Leu-NH2]	400	220 U/mg	15	–
NC(=O)[C@H](N)Cc1ccccc1 [D-Phe-NH2]	890	500 U/mg	4.6	–
N[C@H](Cc1ccccc1)C(=O)O [D-Phe]	–	–	–	enantioselectivity (D-amidase [1]; range from 40 to 50% conversion, partly purified enzyme after the 1st chromatography step): ~55%
NC(=O)[C@@H]1CCCN1 [D-Pro-NH2, prolinamide]	24	12 U/mg	1	–
CC(C)[C@@H](N)C(N)=O [D-Val-NH2]	13	6.9 U/mg	11	–
NC=O [Formamide]	–	–	–	Activity with respect to Tle-NH2 (D-amidase [3]; substrate 40 mM): 0.13; Relative act. (D-amidase [3]; substrate 40 mM): 0.061 U/mg
CC(C)C(N)=O [Isobutyramide]	–	–	–	Activity with respect to Tle-NH2 (D-amidase [3]; substrate 40 mM): 33; Relative act. (D-amidase [3]; substrate 40 mM): 15 U/mg
NC(=O)CC(N)=O [Malonic acid diamide]	–	–	–	Activity with respect to Tle-NH2 (D-amidase [3]; substrate 40 mM): 2.9; Relative act. (D-amidase [3]; substrate 40 mM): 1.5 U/mg
NC(=O)c1cccnc1 [Nicotinamide]	–	–	–	Activity with respect to Tle-NH2 (D-amidase [3]; substrate 40 mM): 19; Relative act. (D-amidase [3]; substrate 40 mM): 8.5 U/mg
CCC(N)=O [Propionamide]	–	–	–	Activity with respect to Tle-NH2 (D-amidase [3]; substrate 40 mM): 26; Relative act. (D-amidase [3]; substrate 40 mM): 12 U/mg
NC(=O)CCC(N)=O [Succinic acid diamide]	–	–	–	Activity with respect to Tle-NH2 (D-amidase [3]; substrate 10 mM): 2.1; Relative act. (D-amidase [3]; substrate 10 mM): 1.1 U/mg
CCCCC(N)=O [Valeric acid amide]	–	–	–	Activity with respect to Tle-NH2 (D-amidase [3]; substrate 40 mM): 36; Relative act. (D-amidase [3]; substrate 40 mM): 16 U/mg
Benzylamide	–	–	–	Activity with respect to Tle-NH2 (D-amidase [3]; substrate 20 mM): 5.2; Relative act. (D-amidase [3]; substrate 20 mM): 2.6 U/mg

Now from value to compound, other results behind:

Activity with respect to Tle-NH2 (D-amidase [2])	Specific activity (D-amidase [2])	Rel. activity with respect to D and L (D-amidase [2])	Compound	other results
15	7.7 U/mg	1	C[C@H](N)C(N)=O [L-Ala-NH2]	–
0.35	0.17 U/mg	–	CC[C@H](C)[C@H](N)C(N)=O [L-Ile-NH2]	–
66	33 U/mg	1.1	CC(O)C(N)=O [L-Lac-NH2, lactic acid amide]	–
26	15 U/mg	1	CC(C)C[C@H](N)C(N)=O [L-Leu-NH2]	–
86	48 U/mg	1	CSCC[C@H](N)C(N)=O [L-Met-NH2]	–
190	110 U/mg	1	NC(=O)[C@@H](N)Cc1ccccc1 [L-Phe-NH2]	–
56	28 U/mg	2.3	NC(=O)[C@@H]1CCCN1 [L-Pro-NH2, prolinamide]	–
62	34 U/mg	1	NC(=O)[C@@H](N)Cc1c[nH]c2ccccc12 [L-Trp-NH2]	–
100	47 U/mg	–	NC(=O)[C@@H](N)Cc1ccc(O)cc1 [L-Tyr-NH2]	–
1.2	0.59 U/mg	1	CC(C)[C@H](N)C(N)=O [L-Val-NH2]	–
